Measured values from ChEMBL document CHEMBL1201862, “PubChem BioAssay data set” (2004).
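Tested at 5 concentrations; 48 h exposure; 96-well plates; endpoints linearly interpolated, else capped at highest concentration. At the GI50, growth is halved.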 The source made the active and inactive calls. No stated cut-off is given here; in the data, active = GI50 up to about 1.1 µM and inactive = higher.

Columns and labels:
Test in all cases: NCI-60 cell line screen, 48 h
786-0 = test system: 786-0
A498 = test system: A498
CAKI-1 = test system: CAKI-1
COLO 205 = test system: COLO 205
HT-29 = test system: HT-29
IGROV-1 = test system: IGROV-1
NCI-H226 = test system: NCI-H226
NCI-H23 = test system: NCI-H23
NCI-H460 = test system: NCI-H460
NCI-H522 = test system: NCI-H522
NCI/ADR-RES = test system: NCI/ADR-RES
OVCAR-8 = test system: OVCAR-8
PC-3 = test system: PC-3
SK-MEL-28 = test system: SK-MEL-28
SK-MEL-5 = test system: SK-MEL-5
SK-OV-3 = test system: SK-OV-3
U-251 = test system: U-251
UACC-257 = test system: UACC-257
UO-31 = test system: UO-31
SW-620 = test system: SW-620

Measured: GI50

COc1cc2c(cc1Cc1c(F)cccc1Cl)nc(-c1c(F)cccc1Cl)n2Cc1c(F)cccc1Cl
inactive: 786-0 24.4 µM | A498 27.3 µM | CAKI-1 6.07 µM | COLO 205 44.8 µM | HT-29 16.5 µM | IGROV-1 32.4 µM | NCI-H226 34 µM | NCI-H23 19.8 µM | NCI-H460 22.5 µM | NCI-H522 16.1 µM | NCI/ADR-RES 38.7 µM | OVCAR-8 36.3 µM | PC-3 10.7 µM | SK-MEL-28 65.6 µM | SK-MEL-5 13.5 µM | SK-OV-3 20.8 µM | U-251 35.2 µM | UACC-257 22.5 µM | UO-31 48.4 µM

S=C1N=C(Cl)/C(=C\c2ccco2)N1
inactive: 786-0 > 100 µM | A498 > 100 µM | CAKI-1 > 100 µM | COLO 205 > 100 µM | HT-29 > 100 µM | IGROV-1 > 100 µM | NCI-H226 > 80.5 µM | NCI-H23 > 100 µM | NCI-H460 > 100 µM | NCI-H522 33.7 µM | NCI/ADR-RES > 100 µM | OVCAR-8 > 100 µM | PC-3 > 100 µM | SK-MEL-28 > 100 µM | SK-MEL-5 > 100 µM | SK-OV-3 > 100 µM | SW-620 > 100 µM | U-251 > 100 µM | UACC-257 > 100 µM | UO-31 > 100 µM

O=C(O)c1ccc(N2C=[N+]3C(=Nc4ccccc43)C2)cc1
inactive: 786-0 > 100 µM | A498 > 100 µM | CAKI-1 > 100 µM | COLO 205 > 100 µM | HT-29 > 100 µM | IGROV-1 > 100 µM | NCI-H226 > 100 µM | NCI-H23 > 100 µM | NCI-H460 > 100 µM | NCI-H522 > 100 µM | NCI/ADR-RES > 100 µM | OVCAR-8 > 100 µM | PC-3 > 100 µM | SK-MEL-28 > 100 µM | SK-MEL-5 > 100 µM | SK-OV-3 > 100 µM | SW-620 > 100 µM | U-251 > 100 µM | UACC-257 > 100 µM | UO-31 > 100 µM

C=CC(O)(CBr)CCC(Br)C(C)(C)Cl (stereo not given)
inactive: 786-0 > 10 µM | A498 > 10 µM | CAKI-1 > 10 µM | COLO 205 > 10 µM | HT-29 > 10 µM | IGROV-1 > 10 µM | NCI-H226 > 10 µM | NCI-H23 > 10 µM | NCI-H460 > 10 µM | NCI-H522 > 10 µM | NCI/ADR-RES > 10 µM | OVCAR-8 > 10 µM | PC-3 > 10 µM | SK-MEL-28 > 10 µM | SK-MEL-5 > 10 µM | SK-OV-3 > 10 µM | SW-620 > 10 µM | U-251 > 10 µM | UACC-257 > 10 µM | UO-31 > 10 µM

COc1ccc2[nH]c(C(=O)N3CC(CCl)c4ccc([N+](=O)[O-])cc43)cc2c1 (stereo not given)
inactive: 786-0 > 100 µM | A498 > 100 µM | CAKI-1 > 100 µM | COLO 205 > 100 µM | HT-29 > 95.7 µM | IGROV-1 64.1 µM | NCI-H226 33.8 µM | NCI-H23 > 100 µM | NCI-H460 > 100 µM | NCI-H522 75 µM | NCI/ADR-RES > 100 µM | OVCAR-8 > 80.9 µM | PC-3 > 100 µM | SK-MEL-28 > 100 µM | SK-MEL-5 > 100 µM | SK-OV-3 > 100 µM | SW-620 > 100 µM | U-251 > 100 µM | UACC-257 > 100 µM | UO-31 > 100 µM

COCN1C(=O)[C@@H]2CCCN2C(=O)c2ccc(Cl)cc21
inactive: 786-0 > 100 µM | A498 > 100 µM | CAKI-1 > 100 µM | COLO 205 > 100 µM | HT-29 > 100 µM | IGROV-1 > 100 µM | NCI-H226 > 100 µM | NCI-H23 > 100 µM | NCI-H460 > 100 µM | NCI-H522 > 100 µM | NCI/ADR-RES > 100 µM | OVCAR-8 > 100 µM | PC-3 > 100 µM | SK-MEL-28 > 100 µM | SK-OV-3 > 100 µM | SW-620 > 100 µM | U-251 > 100 µM | UACC-257 > 100 µM | UO-31 > 100 µM

O=c1[nH]c(=O)c2c3n(cc2[nH]1)CCCCC3
inactive: 786-0 > 100 µM | A498 > 100 µM | CAKI-1 > 100 µM | COLO 205 > 100 µM | HT-29 > 100 µM | IGROV-1 > 100 µM | NCI-H226 > 100 µM | NCI-H23 > 100 µM | NCI-H460 > 100 µM | NCI-H522 > 100 µM | NCI/ADR-RES > 100 µM | OVCAR-8 > 100 µM | PC-3 > 100 µM | SK-MEL-28 > 100 µM | SK-MEL-5 > 100 µM | SK-OV-3 > 100 µM | U-251 > 100 µM | UACC-257 > 100 µM | UO-31 > 100 µM

CN(C)c1ccc(/N=N\c2cccc3ccoc23)cc1
inactive: 786-0 > 100 µM | A498 > 100 µM | CAKI-1 > 62.4 µM | COLO 205 > 82.8 µM | HT-29 29.5 µM | IGROV-1 > 70.3 µM | NCI-H226 > 74.6 µM | NCI-H23 > 68.7 µM | NCI-H460 > 73.3 µM | NCI-H522 35.4 µM | NCI/ADR-RES 43.1 µM | OVCAR-8 > 78 µM | PC-3 59.6 µM | SK-MEL-28 > 100 µM | SK-MEL-5 43.4 µM | SK-OV-3 > 100 µM | SW-620 50.8 µM | U-251 > 62.5 µM | UACC-257 > 60.7 µM | UO-31 6.46 µM

O=C(Nc1nnc(-c2ccccc2)o1)C(SC(=S)N1CCOCC1)c1ccccc1 (stereo not given)
inactive: 786-0 17.9 µM | A498 23.8 µM | CAKI-1 30.2 µM | COLO 205 35.6 µM | HT-29 26.4 µM | IGROV-1 35.7 µM | NCI-H226 34.4 µM | NCI-H23 18.9 µM | NCI-H460 10.1 µM | NCI-H522 23.2 µM | NCI/ADR-RES 14.6 µM | OVCAR-8 31.8 µM | PC-3 27 µM | SK-MEL-28 46.9 µM | SK-MEL-5 15.7 µM | SK-OV-3 42.9 µM | SW-620 42.5 µM | U-251 18.6 µM | UACC-257 35.6 µM | UO-31 13.6 µM

CCOC(=O)/C=C(\C(=O)OCC)n1cc(C)c(=O)n(Cc2cnnn2COCCOC(C)=O)c1=O
inactive: 786-0 3.93 µM | A498 20.8 µM | CAKI-1 3.13 µM | COLO 205 2.07 µM | HT-29 8.59 µM | IGROV-1 8.45 µM | NCI-H226 9.59 µM | NCI-H23 17.5 µM | NCI-H460 11.9 µM | NCI-H522 1.21 µM | NCI/ADR-RES 16.1 µM | OVCAR-8 7.03 µM | PC-3 16 µM | SK-MEL-28 9.89 µM | SK-MEL-5 19.7 µM | SK-OV-3 55.7 µM | SW-620 2.18 µM | U-251 17.7 µM | UACC-257 13.4 µM | UO-31 14.4 µM

CS(=O)(=O)OCCN(CCOS(C)(=O)=O)c1ccc(/C=N/c2ccc3oc(=O)ccc3c2)cc1
inactive: A498 2 µM | COLO 205 2.05 µM | HT-29 5.66 µM | IGROV-1 12 µM | NCI-H226 3.53 µM | NCI-H23 2.04 µM | NCI/ADR-RES 8.59 µM | OVCAR-8 6.97 µM | PC-3 16.6 µM | SK-MEL-28 12.9 µM | SK-MEL-5 7.08 µM | SW-620 14.2 µM | U-251 9.38 µM | UACC-257 6.82 µM
active: 786-0 0.321 µM | CAKI-1 0.622 µM | NCI-H460 0.0313 µM | NCI-H522 0.211 µM | SK-OV-3 1.11 µM | UO-31 0.959 µM

CSc1c(C#N)c(S)[nH]c(=O)c1C#N
inactive: 786-0 71.8 µM | A498 38.2 µM | CAKI-1 > 100 µM | COLO 205 31.9 µM | HT-29 25.4 µM | IGROV-1 22.8 µM | NCI-H226 30.3 µM | NCI-H23 23.7 µM | NCI-H460 97.7 µM | NCI-H522 8.34 µM | NCI/ADR-RES 43.2 µM | OVCAR-8 47.2 µM | PC-3 29.4 µM | SK-MEL-28 46.1 µM | SK-MEL-5 9.91 µM | SK-OV-3 > 100 µM | SW-620 48.9 µM | U-251 > 100 µM | UACC-257 35.8 µM | UO-31 18.7 µM

O=c1cc(NNc2cccc(F)c2)[nH]c(=O)[nH]1
inactive: 786-0 16.6 µM | A498 > 100 µM | CAKI-1 16.4 µM | COLO 205 34.6 µM | HT-29 16.3 µM | IGROV-1 19.8 µM | NCI-H226 > 100 µM | NCI-H23 > 100 µM | NCI-H460 > 100 µM | NCI-H522 18.3 µM | NCI/ADR-RES > 100 µM | PC-3 > 100 µM | SK-MEL-28 > 100 µM | SK-MEL-5 > 100 µM | SK-OV-3 > 100 µM | SW-620 18.6 µM | U-251 17.2 µM | UACC-257 17.9 µM | UO-31 29.4 µM

Cc1ccc2nc(NC(=O)C(=O)C3C(=O)NC(=S)NC3=O)sc2c1
inactive: 786-0 > 100 µM | A498 > 100 µM | CAKI-1 > 100 µM | HT-29 > 100 µM | IGROV-1 49.4 µM | NCI-H226 > 100 µM | NCI-H23 > 100 µM | NCI-H460 > 100 µM | NCI-H522 78 µM | NCI/ADR-RES > 100 µM | OVCAR-8 > 100 µM | PC-3 > 100 µM | SK-MEL-28 > 100 µM | SK-MEL-5 > 100 µM | SK-OV-3 > 100 µM | SW-620 > 100 µM | U-251 > 100 µM | UACC-257 > 100 µM | UO-31 77.3 µM
